Results on 7 compounds are retold here after ChEMBL document CHEMBL1155431, “Antimicrobial activity of long-chain (E)-3-alken-2-ones” (2010).

Values after ≈ are worked out from the molar mass of the structure shown. Active and inactive are the calls of the source. No cut-off for these calls is given here.

What is called MIC is the lowest concentration found to suppress growth. A higher MIC goes with a need for much substance.

The subject of one experiment is Malassezia. The experiment in a line: Antimicrobial activity against Pityrosporum ovale ATCC 14521 after 3 days by two fold serial broth dilution method. The class given is functional. Conditions: ATCC 14521, 72 h.
Another experiment has as its system Klebsiella aerogenes. The experiment in a line: Antimicrobial activity against Enterobacter aerogenes ATCC 13048 after 2 days by two fold serial broth dilution method. The format is functional, organism-based. In general terms: Broth dilution looks for growth in wells or tubes with falling amounts of substance.
Another experiment relates to Pseudomonas aeruginosa. The experiment in a line: Antimicrobial activity against Pseudomonas aeruginosa ATCC 10145 after 2 days by two fold serial broth dilution method. The format is functional, organism-based.
Another experiment relates to Escherichia coli. The experiment in a line: Antimicrobial activity against Escherichia coli ATCC 9637 after 2 days by two fold serial broth dilution method. The class given is functional, organism-based.
For a further experiment, the system named is Saccharomyces cerevisiae. The experiment in a line: Antimicrobial activity against Saccharomyces cerevisiae ATCC 7754 after 2 days by two fold serial broth dilution method. The format is functional, organism-based.

Regarding `CCCCCCCCCCCC/C=C/C(C)=O`, the MIC in the experiment with Malassezia was over 800 µg/mL.
The compound `CCCCCCC/C=C/C(C)=O` displayed an MIC in the experiment on Malassezia of 100 µg/mL (≈ 594 µM).
`CCCCCCCCCC/C=C/C(C)=O`: in the experiment on Malassezia, 100 µg/mL (≈ 475 µM) was the least that counted as inhibitory (MIC).
On the same count and under the same terms, the same measure for `CCCCCCCC/C=C/C(C)=O`: 100 µg/mL (≈ 549 µM); for `CCCCCCCCCCCCC/C=C/C(C)=O`: over 800 µg/mL.
With `CCCCCCCCC/C=C/C(C)=O`, the outcome in the experiment on Klebsiella aerogenes, in the experiment with Pseudomonas aeruginosa, with Escherichia coli and with Saccharomyces cerevisiae was inactive. Moreover, inhibition of growth in the experiment with Malassezia (MIC) required 100 µg/mL (≈ 509 µM).
Consider `CCCCCCCCCCC/C=C/C(C)=O`, for which 400 µg/mL (≈ 1780 µM) was the least that counted as inhibitory against Malassezia (MIC).
